The record followed here is the supplement of paper PMC10307832.

What all share (assay): relative viability (nuclei count vs DMSO), 5 days (fraction); higher = more cells survive
Compound in experiment [1]: CN(C)CC1=CC(=CC=C1)N=C(C2=CC=CC=C2)C3=C(NC4=C3C=CC(=C4)C(=O)N(C)C)O + CCNC(=O)c1noc(-c2cc(C(C)C)c(O)cc2O)c1-c1ccc(CN2CCOCC2)cc1 [Luminespib] (partner 0.01 µM)
A digest of the protocol: (§1)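 Relative viability equals treated-well nuclei counts divided by vehicle-well nuclei counts. Counts came from 4× images of lung cancer cell lines grown in 1536-well plates for 5 days after pin-tool dosing on the day after seeding. Dosing used one drug alone or a fixed anchor-drug dose plus five library-drug doses (not always all listed) in √10 steps, and values are medians of duplicate plates.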

Compound in experiment [2]: CN(C)CC1=CC(=CC=C1)N=C(C2=CC=CC=C2)C3=C(NC4=C3C=CC(=C4)C(=O)N(C)C)O + COc1cccc2cc(-c3nc([C@H]4CC[C@H](C(=O)O)CC4)n4ncnc(N)c34)[nH]c12 [OSI-027] (partner 0.5 µM)
A digest of the protocol: as §1

Compound in experiment [3]: CN(C)CC1=CC(=CC=C1)N=C(C2=CC=CC=C2)C3=C(NC4=C3C=CC(=C4)C(=O)N(C)C)O + CS(=O)(=O)CCNCc1ccc(-c2ccc3ncnc(Nc4ccc(OCc5cccc(F)c5)c(Cl)c4)c3c2)o1 [Lapatinib] (partner 2 µM)
Summed up:
as §1

Compound in experiment [4]: CN(C)CC1=CC(=CC=C1)N=C(C2=CC=CC=C2)C3=C(NC4=C3C=CC(=C4)C(=O)N(C)C)O + C[C@]1(O)C[C@@H](c2nc(-c3ccc4ccc(-c5ccccc5)nc4c3)c3c(N)nccn32)C1 [Linsitinib] (partner 1 µM)
A digest of the protocol: as §1

In the case of LK-2, the relative viability in experiment [1] (first compound 0.08 µM) came to 0.229; in experiment [1] (first compound 0.253 µM) it was 0.164; in experiment [1] (first compound 0.8 µM), 0.188; in experiment [1] (first compound 2.53 µM), 0.183; in experiment [1] (first compound 8 µM) it was 0.138; in experiment [2] (first compound 0.08 µM) it was 0.189. The relative viability in experiment [2] (first compound 0.253 µM) is 0.228; in experiment [2] (first compound 0.8 µM), 0.241; in experiment [2] (first compound 2.53 µM), 0.211; in experiment [2] (first compound 8 µM), 0.185; in experiment [3] (first compound 0.08 µM) it was 1.05; in experiment [3] (first compound 0.253 µM), 0.97. The relative viability in experiment [3] (first compound 0.8 µM) was determined as 0.898; in experiment [3] (first compound 2.53 µM), 0.841; in experiment [3] (first compound 8 µM) it was 0.637; in experiment [4] (first compound 0.08 µM), 0.546; in experiment [4] (first compound 0.253 µM), 0.517; in experiment [4] (first compound 0.8 µM), 0.514. For the same cell line, the relative viability stood at 0.723 in experiment [4] (first compound 2.53 µM) and 0.222 in experiment [4] (first compound 8 µM).
As to NCI-H2023, the relative viability in experiment [1] (first compound 0.08 µM) is 0.75; in experiment [1] (first compound 0.253 µM), 0.75; in experiment [1] (first compound 0.8 µM), 0.769; in experiment [1] (first compound 2.53 µM), 0.577; in experiment [1] (first compound 8 µM), 0.483; in experiment [2] (first compound 0.08 µM) it was 0.321. Moreover, the relative viability turned out to be 0.468 in experiment [2] (first compound 0.253 µM); 0.488 in experiment [2] (first compound 0.8 µM); 0.318 in experiment [2] (first compound 2.53 µM); 0.335 in experiment [2] (first compound 8 µM); 1.25 in experiment [3] (first compound 0.08 µM); 0.889 in experiment [3] (first compound 0.253 µM). The relative viability in experiment [3] (first compound 0.8 µM) came to 0.812; in experiment [3] (first compound 2.53 µM), 0.497; in experiment [3] (first compound 8 µM), 0.43; in experiment [4] (first compound 0.08 µM) it was 0.625; in experiment [4] (first compound 0.253 µM), 0.607; in experiment [4] (first compound 0.8 µM) it was 0.533. For the same cell line, the relative viability in experiment [4] (first compound 2.53 µM) is 0.563; in experiment [4] (first compound 8 µM) it was 0.625.
With PC-3 [JPC-3], the relative viability in experiment [1] (first compound 0.08 µM) stood at 0.705; in experiment [1] (first compound 0.253 µM) it was 0.69; in experiment [1] (first compound 0.8 µM), 0.707; in experiment [1] (first compound 2.53 µM), 0.751; in experiment [1] (first compound 8 µM), 0.695; in experiment [2] (first compound 0.08 µM) it was 0.718. Also, the relative viability in experiment [2] (first compound 0.253 µM) turned out to be 0.792; in experiment [2] (first compound 0.8 µM) it was 0.73; in experiment [2] (first compound 2.53 µM) it was 0.802; in experiment [2] (first compound 8 µM), 0.746; in experiment [3] (first compound 0.08 µM) it was 0.436; in experiment [3] (first compound 0.253 µM), 0.458. The relative viability in experiment [3] (first compound 0.8 µM) was 0.435; in experiment [3] (first compound 2.53 µM) it was 0.465; in experiment [3] (first compound 8 µM) it was 0.444; in experiment [4] (first compound 0.08 µM), 0.985; in experiment [4] (first compound 0.253 µM), 0.907; in experiment [4] (first compound 0.8 µM) it was 0.883. Also, the relative viability is 0.967 in experiment [4] (first compound 2.53 µM) and 1.06 in experiment [4] (first compound 8 µM).
In the case of LOU-NH91, the relative viability in experiment [1] (first compound 0.08 µM) worked out at 0.308; in experiment [1] (first compound 0.253 µM) it was 0.32; in experiment [1] (first compound 0.8 µM), 0.358; in experiment [1] (first compound 2.53 µM), 0.337; in experiment [1] (first compound 8 µM), 0.322; in experiment [2] (first compound 0.08 µM) it was 0.691. The relative viability in experiment [2] (first compound 0.253 µM) was found to be 0.713; in experiment [2] (first compound 0.8 µM) it was 0.561; in experiment [2] (first compound 2.53 µM) it was 0.762; in experiment [2] (first compound 8 µM) it was 0.689; in experiment [3] (first compound 0.08 µM) it was 0.721; in experiment [3] (first compound 0.253 µM) it was 0.836. The relative viability is 0.75 in experiment [3] (first compound 0.8 µM); 0.743 in experiment [3] (first compound 2.53 µM); 0.697 in experiment [3] (first compound 8 µM); 0.975 in experiment [4] (first compound 0.08 µM); 0.946 in experiment [4] (first compound 0.253 µM); 0.68 in experiment [4] (first compound 0.8 µM). In addition, the figures for the relative viability in experiment [4] (first compound 2.53 µM) and in experiment [4] (first compound 8 µM) were 0.925 and 0.952, respectively.
For NCI-H520, the relative viability is 0.218 in experiment [1] (first compound 0.08 µM); 0.197 in experiment [1] (first compound 0.253 µM); 0.239 in experiment [1] (first compound 0.8 µM); 0.221 in experiment [1] (first compound 2.53 µM); 0.236 in experiment [1] (first compound 8 µM); 0.213 in experiment [2] (first compound 0.08 µM). Moreover, the relative viability in experiment [2] (first compound 0.253 µM) is 0.247; in experiment [2] (first compound 0.8 µM) it was 0.267; in experiment [2] (first compound 2.53 µM), 0.3; in experiment [2] (first compound 8 µM), 0.218; in experiment [3] (first compound 0.08 µM) it was 0.774; in experiment [3] (first compound 0.253 µM), 0.801. For the same cell line, the relative viability in experiment [3] (first compound 0.8 µM) turned out to be 0.766; in experiment [3] (first compound 2.53 µM), 0.791; in experiment [3] (first compound 8 µM), 0.724; in experiment [4] (first compound 0.08 µM), 0.896; in experiment [4] (first compound 0.253 µM), 0.878; in experiment [4] (first compound 0.8 µM) it was 0.919. Also, the relative viability in experiment [4] (first compound 2.53 µM) was found to be 0.834; in experiment [4] (first compound 8 µM) it was 0.97.
On to UMC-11, for which the relative viability in experiment [1] (first compound 0.08 µM) came out at 0.982; in experiment [1] (first compound 0.253 µM), 0.941; in experiment [1] (first compound 0.8 µM), 1.08; in experiment [1] (first compound 2.53 µM), 0.974; in experiment [1] (first compound 8 µM), 0.821; in experiment [2] (first compound 0.08 µM), 0.492. Further, the relative viability in experiment [2] (first compound 0.253 µM) was found to be 0.489; in experiment [2] (first compound 0.8 µM), 0.565; in experiment [2] (first compound 2.53 µM), 0.404; in experiment [2] (first compound 8 µM), 0.368; in experiment [3] (first compound 0.08 µM), 1.1; in experiment [3] (first compound 0.253 µM), 0.963. For the same cell line, the relative viability in experiment [3] (first compound 0.8 µM) amounted to 0.969; in experiment [3] (first compound 2.53 µM) it was 0.891; in experiment [3] (first compound 8 µM), 0.846; in experiment [4] (first compound 0.08 µM) it was 1.01; in experiment [4] (first compound 0.253 µM), 0.986; in experiment [4] (first compound 0.8 µM) it was 0.985. The relative viability in experiment [4] (first compound 2.53 µM) is 0.999; in experiment [4] (first compound 8 µM), 0.926.
Turning to BEN, the relative viability worked out at 0.338 in experiment [1] (first compound 0.08 µM); 0.269 in experiment [1] (first compound 0.253 µM); 0.312 in experiment [1] (first compound 0.8 µM); 0.212 in experiment [1] (first compound 2.53 µM); 0.437 in experiment [1] (first compound 8 µM); 0.286 in experiment [2] (first compound 0.08 µM). Besides, the relative viability was 0.31 in experiment [2] (first compound 0.253 µM); 0.25 in experiment [2] (first compound 0.8 µM); 0.306 in experiment [2] (first compound 2.53 µM); 0.289 in experiment [2] (first compound 8 µM); 0.734 in experiment [3] (first compound 0.08 µM); 0.647 in experiment [3] (first compound 0.253 µM). For the same cell line, the relative viability was 0.72 in experiment [3] (first compound 0.8 µM); 0.685 in experiment [3] (first compound 2.53 µM); 0.656 in experiment [3] (first compound 8 µM); 0.98 in experiment [4] (first compound 0.08 µM); 0.876 in experiment [4] (first compound 0.253 µM); 0.793 in experiment [4] (first compound 0.8 µM). The results for the relative viability in experiment [4] (first compound 2.53 µM) and in experiment [4] (first compound 8 µM) were 0.846 and 0.75, respectively.
